Data taken from patent US7417156B2, “Orally active, antimalarial, anticancer, artemisinin-derived trioxane dimers” (Johns Hopkins University, priority 2002, dated 2008).

Columns and labels:
A549/ATCC = assay: NCI 60 cell line panel screen (SRB); format: cell-based, human
MALME-3M = assay: NCI 60 cell line panel screen (SRB); format: cell-based, human
MDA-MB231/ATCC = assay: NCI 60 cell line panel screen (SRB); format: cell-based, human
NCI-H23 = assay: NCI 60 cell line panel screen (SRB); format: cell-based, human
NCI/ADR-RES = assay: NCI 60 cell line panel screen (SRB); format: cell-based, human
OVCAR-3 = assay: NCI 60 cell line panel screen (SRB); format: cell-based, human
SK-MEL-28 = assay: NCI 60 cell line panel screen (SRB); format: cell-based, human
BT-549 = assay: NCI 60 cell line panel screen (SRB); format: cell-based, human
OVCAR-8 = assay: NCI 60 cell line panel screen (SRB); format: cell-based, human
SF-539 = assay: NCI 60 cell line panel screen (SRB); format: cell-based, human
HOP-62 = assay: NCI 60 cell line panel screen (SRB); format: cell-based, human; settings: HOP-62 (Non-Small Cell Lung Cancer)
NCI-H322M = format: cell-based
T-47D = assay: NCI 60 cell line panel screen (SRB); format: cell-based, human
HOP-92 = assay: NCI 60 cell line panel screen (SRB); format: cell-based, human
SF-268 = assay: NCI 60 cell line panel screen (SRB); format: cell-based, human
HCT-116 = assay: NCI 60 cell line panel screen (SRB); format: cell-based, human
RPMI-8226 = assay: NCI 60 cell line panel screen (SRB); format: cell-based, human
IGROVI = assay: NCI 60 cell line panel screen (SRB); format: cell-based, human
PC-3 = assay: NCI 60 cell line panel screen (SRB); format: cell-based, human
TK-10 = assay: NCI 60 cell line panel screen (SRB); format: cell-based, human
U251 = assay: NCI 60 cell line panel screen (SRB); format: cell-based, human
60 cell line panel = format: cell-based
MDA-MB-435 = assay: NCI 60 cell line panel screen (SRB); format: cell-based, human
SK-OV-3 = assay: NCI 60 cell line panel screen (SRB); format: cell-based, human
M14 = assay: NCI 60 cell line panel screen (SRB); format: cell-based, human
[1] = mean value over the 60 cell line panel

## CC1CCC2C(C)C(CC(COC(=O)c3cc[n+]([O-])cc3)CC3OC4OC5(C)CCC6C(C)CCC(C3C)C46OO5)OC3OC4(C)CCC1C32OO4 (stereo not drawn) [Compound 13, bis-trioxane primary alcohol isonicotinate N-oxide]
A549/ATCC; A549/ATCC (Non-Small Cell Lung Cancer), LC50: PG=−50
  Log10LC50: >−4.30 log10M
A549/ATCC; A549/ATCC (Non-Small Cell Lung Cancer), TGI: PG=0
  Log10TGI50: −4.61 log10M
A549/ATCC; Non-Small Cell Lung Cancer, A549/ATCC
  Log10GI50: −5.98
MALME-3M; MALME-3M (Melanoma), LC50: PG=−50
  Log10LC50: −4.66 log10M
MALME-3M; MALME-3M (Melanoma), TGI: PG=0
  Log10TGI50: <−8.30 log10M
MALME-3M; Melanoma, MALME-3M
  Log10GI50: <−8.30
MDA-MB231/ATCC; Breast Cancer, MDA-MB231/ATCC
  Log10GI50: −7.64
MDA-MB231/ATCC; MDA-MB231/ATCC (Breast Cancer), LC50: PG=−50
  Log10LC50: −4.77 log10M
MDA-MB231/ATCC; MDA-MB231/ATCC (Breast Cancer), TGI: PG=0
  Log10TGI50: −6.32 log10M
NCI-H23; NCI-H23 (Non-Small Cell Lung Cancer), LC50: PG=−50
  Log10LC50: −4.62 log10M
NCI-H23; NCI-H23 (Non-Small Cell Lung Cancer), TGI: PG=0
  Log10TGI50: −5.17 log10M
NCI-H23; Non-Small Cell Lung Cancer, NCI-H23
  Log10GI50: <−8.30
NCI/ADR-RES; Breast Cancer, NCI/ADR-RES
  Log10GI50: −7.60
NCI/ADR-RES; NCI/ADR-RES (Breast Cancer), LC50: PG=−50
  Log10LC50: −4.65 log10M
NCI/ADR-RES; NCI/ADR-RES (Breast Cancer), TGI: PG=0
  Log10TGI50: −5.18 log10M
OVCAR-3; OVCAR-3 (Ovarian Cancer), LC50: PG=−50
  Log10LC50: −4.51 log10M
OVCAR-3; OVCAR-3 (Ovarian Cancer), TGI: PG=0
  Log10TGI50: −4.98 log10M
OVCAR-3; Ovarian Cancer, OVCAR-3
  Log10GI50: −7.75
SK-MEL-28; Melanoma, SK-MEL-28
  Log10GI50: −5.13
SK-MEL-28; SK-MEL-28 (Melanoma), LC50: PG=−50
  Log10LC50: −4.34 log10M
SK-MEL-28; SK-MEL-28 (Melanoma), TGI: PG=0
  Log10TGI50: −4.73 log10M
BT-549; BT-549 (Breast Cancer), LC50: PG=−50
  Log10LC50: −4.61 log10M
BT-549; BT-549 (Breast Cancer), TGI: PG=0
  Log10TGI50: −5.07 log10M
BT-549; Breast Cancer, BT-549
  Log10GI50: <−8.30
OVCAR-8; OVCAR-8 (Ovarian Cancer), LC50: PG=−50
  Log10LC50: >−4.30 log10M
OVCAR-8; Ovarian Cancer, OVCAR-8
  Log10GI50: −7.69
SF-539; CNS Cancer, SF-539
  Log10GI50: <−8.30
SF-539; SF-539 (CNS Cancer), LC50: PG=−50
  Log10LC50: −4.56 log10M
HOP-62; LC50: PG=−50
  Log10LC50: −4.54 log10M
HOP-62; TGI: PG=0
  Log10TGI50: −4.91 log10M
NCI-H322M; NCI-H322M (Non-Small Cell Lung Cancer), LC50: PG=−50
  Log10LC50: −4.59 log10M
NCI-H322M; NCI-H322M (Non-Small Cell Lung Cancer), TGI: PG=0
  Log10TGI50: −5.06 log10M
NCI-H322M; Non-Small Cell Lung Cancer, NCI-H322M
  Log10GI50: −6.26
T-47D; Breast Cancer, T-47D
  Log10GI50: <−8.30
T-47D; T-47D (Breast Cancer), LC50: PG=−50
  Log10LC50: >−4.30 log10M
T-47D; T-47D (Breast Cancer), TGI: PG=0
  Log10TGI50: −5.36 log10M
HOP-92; HOP-92 (Non-Small Cell Lung Cancer), LC50: PG=−50
  Log10LC50: −4.74 log10M
HOP-92; HOP-92 (Non-Small Cell Lung Cancer), TGI: PG=0
  Log10TGI50: −5.27 log10M
HOP-92; Non-Small Cell Lung Cancer, HOP-92
  Log10GI50: −8.04
SF-268; CNS Cancer, SF-268
  Log10GI50: −5.29
SF-268; SF-268 (CNS Cancer), LC50: PG=−50
  Log10LC50: −4.31 log10M
SF-268; SF-268 (CNS Cancer), TGI: PG=0
  Log10TGI50: −4.80 log10M
HCT-116; Colon Cancer, HCT-116
  Log10GI50: <−8.30
HCT-116; HCT-116 (Colon Cancer), LC50: PG=−50
  Log10LC50: >−4.30 log10M
HCT-116; HCT-116 (Colon Cancer), TGI: PG=0
  Log10TGI50: −5.06 log10M
RPMI-8226; Leukemia, RPMI-8226
  Log10GI50: <−8.30
RPMI-8226; RPMI-8226 (Leukemia), LC50: PG=−50
  Log10LC50: >−4.30 log10M
RPMI-8226; RPMI-8226 (Leukemia), TGI: PG=0
  Log10TGI50: >−4.30 log10M
IGROVI; IGROVI (Ovarian Cancer), LC50: PG=−50
  Log10LC50: >−4.30 log10M
IGROVI; IGROVI (Ovarian Cancer), TGI: PG=0
  Log10TGI50: >−4.30 log10M
IGROVI; Ovarian Cancer, IGROVI
  Log10GI50: −5.36
PC-3; PC-3 (Prostate Cancer), LC50: PG=−50
  Log10LC50: −4.63 log10M
PC-3; PC-3 (Prostate Cancer), TGI: PG=0
  Log10TGI50: −5.11 log10M
PC-3; Prostate Cancer, PC-3
  Log10GI50: <−8.30
TK-10; Renal Cancer, TK-10
  Log10GI50: <−8.30
TK-10; TK-10 (Renal Cancer), LC50: PG=−50
  Log10LC50: −4.53 log10M
TK-10; TK-10 (Renal Cancer), TGI: PG=0
  Log10TGI50: −5.34 log10M
U251; CNS Cancer, U251
  Log10GI50: <−8.30
U251; U251 (CNS Cancer), LC50: PG=−50
  Log10LC50: −4.69 log10M
U251; U251 (CNS Cancer), TGI: PG=0
  Log10TGI50: −5.08 log10M
60 cell line panel
  Log10GI50 Delta: 0.92
  Log10GI50 Range: 3.22
60 cell line panel; 60 cell line panel
  Log10LC50 Delta: 1.27
  Log10LC50 Range: 1.49
  Log10TGI50 Delta: 3.15
  Log10TGI50 Range: 4.00
60 cell line panel; mean over panel
  Log10GI50 MG MID: −7.38
60 cell line panel; [1]
  Log10LC50 MG MID: −4.51 log10M
  Log10TGI50 MG MID: −5.15 log10M
MDA-MB-435; Breast Cancer, MDA-MB-435
  Log10GI50: −7.62
MDA-MB-435; MDA-MB-435 (Breast Cancer), LC50: PG=−50
  Log10LC50: −4.46 log10M
MDA-MB-435; MDA-MB-435 (Breast Cancer), TGI: PG=0
  Log10TGI50: −4.94 log10M
SK-OV-3; Ovarian Cancer, SK-OV-3
  Log10GI50: −5.13
SK-OV-3; SK-OV-3 (Ovarian Cancer), LC50: PG=−50
  Log10LC50: −4.31 log10M
SK-OV-3; SK-OV-3 (Ovarian Cancer), TGI: PG=0
  Log10TGI50: −4.72 log10M
M14; M14 (Melanoma), LC50: PG=−50
  Log10LC50: >−4.30 log10M
M14; M-14 (Melanoma), TGI: PG=0
  Log10TGI50: −4.75 log10M
M14; Melanoma, M14
  Log10GI50: −5.81
